According to the Kinase Knowledgebase extract (Sharma et al. 2016):

Key:
[1] = biological target: EGFR (human) (UniProt P00533); conditions: h7 578t
[2] = biological target: EGFR (human) (UniProt P00533); conditions: km-12
[3] = biological target: EGFR (human) (UniProt P00533); conditions: uacc62
[4] = biological target: EGFR (human) (UniProt P00533); conditions: sn12c
[5] = biological target: EGFR (human) (UniProt P00533); conditions: rxf-393
[6] = biological target: EGFR (human) (UniProt P00533); conditions: molt-4
[7] = biological target: EGFR (human) (UniProt P00533); conditions: ccrf-cem leukemia cell
[8] = biological target: EGFR (human) (UniProt P00533); conditions: HN5
[9] = biological target: EGFR (human) (UniProt P00533); conditions: sk-mel-2
[10] = biological target: EGFR (human) (UniProt P00533); conditions: hop-62
[11] = biological target: EGFR (human) (UniProt P00533); conditions: h460
[12] = biological target: EGFR (human) (UniProt P00533); conditions: hct-15
[13] = biological target: EGFR (human) (UniProt P00533); conditions: m14
[14] = biological target: EGFR (human) (UniProt P00533); conditions: a431
[15] = biological target: EGFR (human) (UniProt P00533); conditions: ovcar-5
[16] = biological target: EGFR (human) (UniProt P00533); conditions: pc-3
[17] = biological target: EGFR (human) (UniProt P00533); conditions: sf-539
[18] = biological target: EGFR (human) (UniProt P00533); conditions: sk-ov-3
[19] = biological target: EGFR (human) (UniProt P00533); conditions: h522
[20] = biological target: EGFR (human) (UniProt P00533); conditions: caski
[21] = biological target: EGFR (human) (UniProt P00533); conditions: mda-mb-231/atcc
[22] = biological target: EGFR (human) (UniProt P00533); conditions: uo-31
[23] = biological target: EGFR (human) (UniProt P00533); conditions: hct 116
[24] = biological target: EGFR (human) (UniProt P00533); conditions: mda-mb-435
[25] = biological target: EGFR (human) (UniProt P00533); conditions: h226
[26] = biological target: EGFR (human) (UniProt P00533); conditions: siha
[27] = biological target: EGFR (human) (UniProt P00533); conditions: k562
[28] = biological target: EGFR (human) (UniProt P00533); conditions: achn
[29] = biological target: EGFR (human) (UniProt P00533); conditions: lox-imvi
[30] = biological target: EGFR (human) (UniProt P00533); conditions: ovcar-8
[31] = biological target: EGFR (human) (UniProt P00533); conditions: uo-31; remark: listed apart in the source
[32] = biological target: EGFR (human) (UniProt P00533); conditions: tk-10
[33] = biological target: EGFR (human) (UniProt P00533); conditions: mda-n
[34] = biological target: EGFR (human) (UniProt P00533); conditions: ht-29
[35] = biological target: EGFR (human) (UniProt P00533); conditions: snb-19
[36] = biological target: EGFR (human) (UniProt P00533); conditions: snb-75
[37] = biological target: EGFR (human) (UniProt P00533); conditions: sf268
[38] = biological target: EGFR (human) (UniProt P00533); conditions: mg-mid
[39] = biological target: EGFR (human) (UniProt P00533); conditions: ekvx
[40] = biological target: EGFR (human) (UniProt P00533); conditions: h23
[41] = biological target: EGFR (human) (UniProt P00533); conditions: mcf-7
[42] = biological target: EGFR (human) (UniProt P00533); conditions: hcc2998
[43] = biological target: EGFR (human) (UniProt P00533); conditions: ovcar-4
[44] = biological target: EGFR (human) (UniProt P00533); conditions: t-47d
[45] = biological target: EGFR (human) (UniProt P00533); conditions: rpmi8226
[46] = biological target: EGFR (human) (UniProt P00533); conditions: malme-3m
[47] = biological target: EGFR (human) (UniProt P00533); conditions: h322m
[48] = biological target: EGFR (human) (UniProt P00533); conditions: bt-549
[49] = biological target: EGFR (human) (UniProt P00533); conditions: colo-205
[50] = biological target: EGFR (human) (UniProt P00533); conditions: ovcar-3

EGFR (human), sequence (P00533 whole entry, looked up): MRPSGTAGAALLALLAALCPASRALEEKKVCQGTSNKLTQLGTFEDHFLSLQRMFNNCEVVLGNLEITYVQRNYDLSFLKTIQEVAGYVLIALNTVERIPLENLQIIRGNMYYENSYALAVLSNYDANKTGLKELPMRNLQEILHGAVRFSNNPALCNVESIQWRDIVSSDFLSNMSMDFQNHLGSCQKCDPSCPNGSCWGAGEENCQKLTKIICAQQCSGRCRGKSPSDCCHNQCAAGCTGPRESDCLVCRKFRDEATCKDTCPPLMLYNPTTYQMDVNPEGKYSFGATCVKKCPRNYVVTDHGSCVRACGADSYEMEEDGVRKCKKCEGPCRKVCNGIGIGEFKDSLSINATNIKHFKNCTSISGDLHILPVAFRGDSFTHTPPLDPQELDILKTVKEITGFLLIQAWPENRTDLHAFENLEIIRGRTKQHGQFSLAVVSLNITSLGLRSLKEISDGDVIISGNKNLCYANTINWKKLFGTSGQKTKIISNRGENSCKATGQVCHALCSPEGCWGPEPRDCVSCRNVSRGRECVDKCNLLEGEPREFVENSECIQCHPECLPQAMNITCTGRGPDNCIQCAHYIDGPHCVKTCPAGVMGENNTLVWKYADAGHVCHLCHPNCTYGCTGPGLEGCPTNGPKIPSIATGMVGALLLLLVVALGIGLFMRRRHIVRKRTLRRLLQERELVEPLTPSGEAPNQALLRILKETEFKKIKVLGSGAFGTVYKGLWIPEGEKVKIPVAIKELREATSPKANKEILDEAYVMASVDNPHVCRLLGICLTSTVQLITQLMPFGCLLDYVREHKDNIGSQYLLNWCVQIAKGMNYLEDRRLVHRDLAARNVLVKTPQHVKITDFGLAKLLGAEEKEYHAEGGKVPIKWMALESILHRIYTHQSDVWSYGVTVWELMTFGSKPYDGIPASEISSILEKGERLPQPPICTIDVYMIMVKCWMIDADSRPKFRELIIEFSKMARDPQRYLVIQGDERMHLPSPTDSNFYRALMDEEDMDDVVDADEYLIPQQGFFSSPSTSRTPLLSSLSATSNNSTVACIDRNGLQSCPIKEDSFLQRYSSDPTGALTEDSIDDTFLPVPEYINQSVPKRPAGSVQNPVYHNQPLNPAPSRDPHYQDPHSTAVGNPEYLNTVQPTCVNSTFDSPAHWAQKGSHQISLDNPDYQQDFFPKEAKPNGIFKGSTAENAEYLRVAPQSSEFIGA

Question: For CCOC(=O)/C(C#N)=C/c1ccc([N+](=O)[O-])s1, which GI50 [1] is on record?
Answer: 3.47 µM

Question: And the GI50 [2]?
Answer: 6.92 µM

Question: What about the GI50 [3] of the same compound?
Answer: 1.35 µM

Question: What about the GI50 [4] of the same compound?
Answer: 5.75 µM

Question: What about the GI50 [5] of the same compound?
Answer: 1.7 µM

Question: What about the GI50 [6] of the same compound?
Answer: 1.74 µM

Question: And the GI50 [7]?
Answer: 1.55 µM

Question: And the IC50 [8]?
Answer: 34 µM

Question: And the GI50 [9]?
Answer: 3.31 µM

Question: And the GI50 [10]?
Answer: 14.8 µM

Question: And the GI50 [11]?
Answer: 6.92 µM

Question: What about the GI50 [12] of the same compound?
Answer: 2.19 µM

Question: What about the GI50 [13] of the same compound?
Answer: 1.74 µM

Question: And the IC50 [14]?
Answer: 4.6 µM

Question: What about the GI50 [15] of the same compound?
Answer: 1.95 µM

Question: And the GI50 [16]?
Answer: 2.95 µM

Question: What about the GI50 [17] of the same compound?
Answer: 5.75 µM

Question: And the GI50 [18]?
Answer: 15.5 µM

Question: What about the GI50 [19] of the same compound?
Answer: 1.69 µM

Question: What about the IC50 [20] of the same compound?
Answer: 6.94 µM

Question: And the GI50 [21]?
Answer: 1.86 µM

Question: And the GI50 [22]?
Answer: 1.86 µM

Question: What about the GI50 [23] of the same compound?
Answer: 1.48 µM

Question: And the GI50 [24]?
Answer: 2.34 µM

Question: And the GI50 [25]?
Answer: 16.2 µM

Question: And the IC50 [26]?
Answer: 4.59 µM

Question: And the GI50 [27]?
Answer: 1.2 µM

Question: And the GI50 [28]?
Answer: 1.9 µM

Question: What about the GI50 [29] of the same compound?
Answer: 1.86 µM

Question: And the GI50 [30]?
Answer: 1.99 µM

Question: What about the GI50 [31] of the same compound?
Answer: 10.7 µM

Question: What about the GI50 [32] of the same compound?
Answer: 3.47 µM

Question: And the GI50 [33]?
Answer: 2.19 µM

Question: What about the GI50 [34] of the same compound?
Answer: 2.04 µM

Question: And the GI50 [35]?
Answer: 14.8 µM

Question: And the GI50 [36]?
Answer: 7.58 µM

Question: What about the GI50 [37] of the same compound?
Answer: 6.16 µM

Question: And the GI50 [38]?
Answer: 3.47 µM

Question: And the GI50 [39]?
Answer: 15.5 µM

Question: What about the GI50 [40] of the same compound?
Answer: 2.63 µM

Question: What about the GI50 [41] of the same compound?
Answer: 3.09 µM

Question: And the GI50 [42]?
Answer: 3.47 µM

Question: What about the GI50 [43] of the same compound?
Answer: 1.7 µM

Question: What about the GI50 [44] of the same compound?
Answer: 2.75 µM

Question: What about the GI50 [45] of the same compound?
Answer: 2.34 µM

Question: And the GI50 [46]?
Answer: 2.24 µM

Question: And the GI50 [47]?
Answer: 17 µM

Question: What about the GI50 [48] of the same compound?
Answer: 0.871 µM

Question: And the GI50 [49]?
Answer: 1.62 µM

Question: What about the GI50 [50] of the same compound?
Answer: 2.04 µM

Question: Which GI50 [1] does the source give for N#CC(C#N)=C(N)/C(C#N)=C/c1ccc([N+](=O)[O-])s1 here?
Answer: 18.6 µM

Question: And the GI50 [2]?
Answer: 18.2 µM

Question: And the GI50 [3]?
Answer: 79.4 µM

Question: And the GI50 [4]?
Answer: 13.5 µM

Question: And the GI50 [5]?
Answer: 9.33 µM

Question: And the GI50 [6]?
Answer: 5.89 µM

Question: What about the GI50 [7] of the same compound?
Answer: 4.17 µM

Question: And the IC50 [8]?
Answer: 12.2 µM

Question: And the GI50 [9]?
Answer: 19.5 µM

Question: And the GI50 [10]?
Answer: 19.5 µM

Question: What about the GI50 [11] of the same compound?
Answer: 23.4 µM

Question: And the GI50 [12]?
Answer: 17.8 µM

Question: What about the GI50 [13] of the same compound?
Answer: 12 µM

Question: And the IC50 [14]?
Answer: 6.07 µM

Question: And the GI50 [15]?
Answer: 26.9 µM

Question: And the GI50 [16]?
Answer: 19.9 µM

Question: What about the GI50 [17] of the same compound?
Answer: 23.4 µM

Question: And the GI50 [18]?
Answer: 17.8 µM

Question: And the GI50 [19]?
Answer: 11 µM

Question: What about the IC50 [20] of the same compound?
Answer: 9.24 µM

Question: And the GI50 [21]?
Answer: 17 µM

Question: What about the GI50 [22] of the same compound?
Answer: 18.2 µM

Question: What about the GI50 [23] of the same compound?
Answer: 3.39 µM

Question: And the GI50 [24]?
Answer: 12.3 µM

Question: And the GI50 [25]?
Answer: 17.8 µM

Question: What about the IC50 [26] of the same compound?
Answer: 13.4 µM

Question: What about the GI50 [27] of the same compound?
Answer: 3.89 µM

Question: And the GI50 [28]?
Answer: 19.9 µM

Question: What about the GI50 [29] of the same compound?
Answer: 11.5 µM

Question: What about the GI50 [30] of the same compound?
Answer: 12.6 µM

Question: And the GI50 [31]?
Answer: 14.8 µM

Question: What about the GI50 [32] of the same compound?
Answer: 18.2 µM

Question: And the GI50 [33]?
Answer: 4.57 µM

Question: What about the GI50 [34] of the same compound?
Answer: 15.8 µM

Question: What about the GI50 [35] of the same compound?
Answer: 17.8 µM

Question: What about the GI50 [36] of the same compound?
Answer: 14.8 µM

Question: What about the GI50 [37] of the same compound?
Answer: 22.4 µM

Question: What about the GI50 [38] of the same compound?
Answer: 13.2 µM

Question: And the GI50 [39]?
Answer: 19.5 µM

Question: And the GI50 [40]?
Answer: 16.6 µM

Question: And the GI50 [41]?
Answer: 10.5 µM

Question: What about the GI50 [42] of the same compound?
Answer: 15.8 µM

Question: What about the GI50 [43] of the same compound?
Answer: 15.5 µM

Question: What about the GI50 [44] of the same compound?
Answer: 6.91 µM

Question: What about the GI50 [45] of the same compound?
Answer: 5.01 µM

Question: And the GI50 [46]?
Answer: 22.9 µM

Question: And the GI50 [47]?
Answer: 20.9 µM

Question: And the GI50 [48]?
Answer: 12.9 µM

Question: And the GI50 [49]?
Answer: 15.1 µM

Question: And the GI50 [50]?
Answer: 15.5 µM
